Reference: patent publication US9078929B2, “ε-Polylysine conjugates and the use thereof” (Merck Patent GmbH, priority 2009, dated 2015)

What was measured:
[1] = Comparative planar scintigraphs, mouse model; type: in vivo
Source text: (§1) The uptake of ^99mTc-MAG3 and of ^99mTc-DMSA are compared with the uptake of (ε-L-polylysine-DOTA, loaded with ^111In) in the rat and mouse model in planar scintigraphs.

[2] = Comparative planar scintigraphs, rat model; type: in vivo
Source text: as §1

[3] = test system: proteases; settings: in contrast to α-polylysine; cited from earlier work

Row | Compound | kidney to background ratio compared with ε-L-polylysine-DOTA loaded with 111In [1] | kidney to background ratio compared with ε-L-polylysine-DOTA loaded with 111In [2] | enzymatic degradation by proteases [3]
1 | O=C(O)CNC(=O)CNC(=O)CNC(=O)CS [^99mTc-MAG3, mercaptoacetyltriglycine, metal not drawn] | worse kidney to background ratio | worse kidney to background ratio | 
2 | ε-polylysine |  |  | not enzymatically degraded
